Patent US20150025077A1 (COYOTE PHARMACEUTICALS, INC., priority 2012, published 2015)

These compounds were tested on HSP70 (assay: HSP70 levels in Neuro 2a cells, ELISA). Conditions: 100 nM, 48 hrs compound then 24 hrs GGTI-298.
Type: cell-based, mouse
Protocol: Mouse neuroblastoma 2a cells were cultured in DMEM with 10% FBS for 24 hrs. […] After 24 hrs cells were harvested and lysates were prepared and analyzed by ELISA for HSP70. Compound ID numbers in table refer to structures in Table 1 and Table 2.

Structure (SMILES) | HSP70 level, ELISA signal (absence of compounds normalized as 1.00)
CC(C)=CCC/C(C)=C/CC/C(C)=C/c1ncc(C)o1 [Compound 15, 5-methyl-2-((1E,5E)-2,6,10-trimethylundeca-1,5,9-trien-1-yl)oxazole] | 1.08
CC(C)=CCC/C(C)=C/CC/C(C)=C/CC/C(C)=C/CN(C)C1CCCCC1 [Compound 17a, N-Cyclohexyl N-Methyl-2E,6E,10E-Geranylgeranyl amine] | 1.09
CC(C)=CCC/C(C)=C/CC/C(C)=C/CC/C(C)=C/CNCCCOC(C)C [Compound 17d] | 1.01
CCNC(=O)OC(C)CC/C=C(\C)CC/C=C(\C)CCC=C(C)C (stereo not shown) [Compound 20a, Ethyl 5E,9E-farnesyl prop-2-yl carbamate] | 0.91
CC(C)=CCC/C(C)=C/CC/C(C)=C/CC/C(C)=C/C1=N[C@H](C)CO1 [Compound 27d, (R)-4-methyl-2-((1E,5E,9E)-2,6,10,14-tetramethylpentadeca-1,5,9,13-tetraen-1-yl)-4,5-dihydrooxazole] | 1.04
CC(C)=CCC/C(C)=C/CC/C(C)=C/CC/C(C)=C/C1=N[C@H](CC(C)C)C(=O)O1 [Compound 37c, (R)-4-isobutyl-2-((1E,5E,9E)-2,6,10,14-tetramethylpentadeca-1,5,9,13-tetraen-1-yl)oxazol-5(4H)-one] | 0.99
CC(C)=CCC/C(C)=C/CC/C(C)=C/CC/C(C)=C/COC(=S)Nc1cccnc1 [Compound 38a, O-((2E,6E,10E)-3,7,11,15-tetramethylhexadeca-2,6,10,14-tetraen-1-yl) pyridin-3-ylcarbamothioate] | 0.79
CC(C)=CCC/C(C)=C/CC/C(C)=C/CC/C(C)=C/COC(=S)NCc1ccco1 [Compound 38b, O-((2E,6E,10E)-3,7,11,15-tetramethylhexadeca-2,6,10,14-tetraen-1-yl) (furan-2-ylmethyl)carbamothioate] | 1.04

Same assay, conditions: 10uM, 48 hrs compound then 24 hrs GGTI-298

Structure (SMILES) | HSP70 level, ELISA signal (absence of compounds normalized as 1.00)
CC(C)=CCC/C(C)=C/CC/C(C)=C/CC/C(C)=C/c1ncc(C)o1 [Compound 16, 5-methyl-2-((1E,5E,9E)-2,6,10,14-tetramethylpentadeca-1,5,9,13-tetraen-1-yl)oxazole] | 0.89
CC(C)=CCC/C(C)=C/CC/C(C)=C/CC/C(C)=C/CN(C)C1CCCCC1 [Compound 17a, N-Cyclohexyl N-Methyl-2E,6E,10E-Geranylgeranyl amine] | 1.22
CCCCCN(C)C/C=C(\C)CC/C=C(\C)CC/C=C(\C)CCC=C(C)C [Compound 17b, N-Methyl-N-n-pentyl-2E,6E,10E-Geranylgeranyl amine] | 1.08
CCCCCCCN(C)C/C=C(\C)CC/C=C(\C)CC/C=C(\C)CCC=C(C)C [Compound 17c, N-Heptyl-N-Methyl-2E,6E,10E-Geranylgeranyl amine] | 1.01
CC(C)=CCC/C(C)=C/CC/C(C)=C/CC/C(C)=C/CNC12CC3CC(CC(C3)C1)C2 [Compound 17e, N-Adamantyl-2E,6E,10E-Geranylgeranyl amine] | 1.06
CC(C)=CCC/C(C)=C/CC/C(C)=C/CC/C(C)=C/C1=N[C@@H](CC(C)C)CO1 [Compound 27c, (S)-4-isobutyl-2-((1E,5E,9E)-2,6,10,14-tetramethylpentadeca-1,5,9,13-tetraen-1-yl)-4,5-dihydrooxazole] | 0.95
CC(C)=CCC/C(C)=C/CC/C(C)=C/CC/C(C)=C/C1=N[C@H](C)CO1 [Compound 27d, (R)-4-methyl-2-((1E,5E,9E)-2,6,10,14-tetramethylpentadeca-1,5,9,13-tetraen-1-yl)-4,5-dihydrooxazole] | 1.37
CC(C)=CCC/C(C)=C/CC/C(C)=C/CC/C(C)=C/C1=N[C@H](C(C)C)CO1 [Compound 27e, (R)-4-isopropyl-2-((1E,5E,9E)-2,6,10,14-tetramethylpentadeca-1,5,9,13-tetraen-1-yl)-4,5-dihydrooxazole] | 1.11
CC(C)=CCC/C(C)=C/CC/C(C)=C/CC/C(C)=C/C1=N[C@H](CC(C)C)CO1 [Compound 27f, (R)-4-isobutyl-2-((1E,5E,9E)-2,6,10,14-tetramethylpentadeca-1,5,9,13-tetraen-1-yl)-4,5-dihydrooxazole] | 0.91
CC(C)=CCC/C(C)=C/CC/C(C)=C/CC/C(C)=C/c1nnc(-c2ccccc2)o1 [Compound 29a, 2-phenyl-5-((1E,5E,9E)-2,6,10,14-tetramethylpentadeca-1,5,9,13-tetraen-1-yl)-1,3,4-oxadiazole] | 1.22
COc1ccc(-c2nnc(/C=C(\C)CC/C=C(\C)CC/C=C(\C)CCC=C(C)C)o2)cc1 [Compound 29c, 2-(4-methoxyphenyl)-5-((1E,5E,9E)-2,6,10,14-tetramethylpentadeca-1,5,9,13-tetraen-1-yl)-1,3,4-oxadiazole] | 1.06
COc1ccc(-c2nnc(/C=C(\C)CC/C=C(\C)CC/C=C(\C)CCC=C(C)C)o2)cc1OC [Compound 29d, 2-(3,4-dimethoxyphenyl)-5-((1E,5E,9E)-2,6,10,14-tetramethylpentadeca-1,5,9,13-tetraen-1-yl)-1,3,4-oxadiazole] | 1.12
CC(C)=CCC/C(C)=C/CC/C(C)=C/CC/C(C)=C/c1nnc(-c2cccnc2)o1 [Compound 29e, 2-(pyridin-3-yl)-5-((1E,5E,9E)-2,6,10,14-tetramethylpentadeca-1,5,9,13-tetraen-1-yl)-1,3,4-oxadiazole] | 1.10
CC(C)=CCC/C(C)=C/CC/C(C)=C/CC/C(C)=C/c1nnc(-c2ccncc2)o1 [Compound 29f, 2-(pyridin-4-yl)-5-((1E,5E,9E)-2,6,10,14-tetramethylpentadeca-1,5,9,13-tetraen-1-yl)-1,3,4-oxadiazole] | 1.01
CC(C)=CCC/C(C)=C/c1nc(-c2ccccc2)co1 [Compound 32, (E)-2-(2,6-dimethylhepta-1,5-dien-1-yl)-4-phenyloxazole] | 0.96
CC(C)=CCC/C(C)=C/c1nc(-c2cccnc2)no1 [Compound 35a, (E)-5-(2,6-dimethylhepta-1,5-dien-1-yl)-3-(pyridin-3-yl)-1,2,4-oxadiazole] | 1.08
CC(C)=CCC/C(C)=C/c1nc(-c2ccc(F)cc2)no1 [Compound 35b, (E)-5-(2,6-dimethylhepta-1,5-dien-1-yl)-3-(4-fluorophenyl)-1,2,4-oxadiazole] | 0.95
CC(C)=CCC/C(C)=C/c1nc(-c2ccccc2)no1 [Compound 35c, (E)-5-(2,6-dimethylhepta-1,5-dien-1-yl)-3-phenyl-1,2,4-oxadiazole] | 1.04
CC(C)=CCC/C(C)=C/c1nc(-c2ccncc2)no1 [Compound 35d, (E)-5-(2,6-dimethylhepta-1,5-dien-1-yl)-3-(pyridin-4-yl)-1,2,4-oxadiazole] | 1.05
CC(C)=CCC/C(C)=C/CC/C(C)=C/CC/C(C)=C/C1=N[C@@H](C(C)C)C(=O)O1 [Compound 37b, (S)-4-isopropyl-2-((1E,5E,9E)-2,6,10,14-tetramethylpentadeca-1,5,9,13-tetraen-1-yl)oxazol-5(4H)-one] | 0.89
